The structures appear in SMILES notation.

Consider one molecule from patent US11376268B2, “Methods and materials for treating human immunodeficiency virus infections” (priority 2015, dated 2022).

Experiment [1] has as its system J-Lat cells (a model of HIV latency, using GFP tagged HIV). Nature of the experiment: J-Lat cells flow cytometry for HIV GFP expression and activated caspase 3 (FIG. 6). The class given is cell-based. Conditions: 24 hours, bortezomib 1, 10, or 20 nM, MLN-2238 (ixazomib) 10 or 50 nM. Here is the method: FIG. 6 contains flow cytometry results of J-Lat cells (a model of HIV latency, using GFP tagged HIV) treated with nothing, bortezomib (1, 10, or 20 nM), or MLN-2238 (ixazomib; 10 or 50 nM) and analyzed 24 hours later for activated caspase 3 expression and for HIV expression.
A general note: Flow cytometry measures light scatter and fluorescence of single cells or particles in a stream.

Experiment [2] concerns J-Lat cells (a model of HIV latency using GFP HIV). Nature of the experiment: J-Lat cells time course flow cytometry (FIG. 8). In kind it is cell-based. Conditions: analyzed at 24, 48, and 72 hours. As to the method: J-Lat cells (a model of HIV latency using GFP HIV) were treated with bortezomib or ixazomib at the indicated doses and analyzed at 24, 48, and 72 hours.
A further experiment relates to HDAC-3. The experiment is described as follows: HDAC-3 expression in primary CD4 T cells (FIG. 11). In kind it is cell-based. Here is the method:
(§1) FIG. 11. […] Proteosome inhibitors were analyzed for the ability to alter the expression of HDAC. Bortezomib and ixazomib decreased HDAC-1, HDAC-3, and HDAC-4 expression in primary CD4 T cells.

For another experiment, the system named is HIV-LTR. The experiment is described as follows: Luc expression in primary CD4 T cells infected with HIV luc or transfected with HIV-LTR Luc (FIG. 9). The class given is cell-based. The conditions noted are these: primary CD4 T cells infected with HIV luc or transfected with HIV-LTR Luc and TK renilla. As to the method: Primary CD4 T cells infected with HIV luc (top panel) or primary CD4 T cells transfected with HIV-LTR Luc and co-transfected TK renilla (bottom panel) were treated with the indicated doses of bortezomib or ixazomib, and analyzed for Luc expression as a measure of HIV reactivation.

The subject of the next experiment is HDAC-4. The experiment is described as follows: HDAC-4 expression in primary CD4 T cells (FIG. 11). In kind it is cell-based. Here is the method:
as §1

The test system of another experiment is HDAC-1. The experiment is described as follows: HDAC-1 expression in primary CD4 T cells (FIG. 11). The class given is cell-based. Here is the method:
as §1

For experiment [3], the system named is UPR pathway. Nature of the experiment: UPR pathway activation in J Lat cells: ATF4 and CHOP nuclear translocation, ATF6 cleavage (FIG. 13). In kind it is cell-based. The conditions noted are these: bortezomib (10 nM) or ixazomib (50 nM). As to the method: FIG. 13. J-LAT-10.6 or Jurkat cells were treated with bortezomib (10 nM) or ixazomib (50 nM) for the indicated times. Bortezomib and ixazomib induced ATF4 and CHOP translocation into the nucleus, and ATF6 cleavage in J Lat cells, indicating the activation of the UPR pathway.

Experiment [4] relates to UPR pathway. The experiment is described as follows: UPR pathway activation in J Lat cells: phospho PERK, phospho IRE1, JNK (FIG. 12). The class given is cell-based. The conditions noted are these: bortezomib (10 nM) or ixazomib (50 nM). As to the method:
FIG. 12. J-LAT-10.6 or Jurkat cells were treated with bortezomib (10 nM) or ixazomib (50 nM) for the indicated times. Bortezomib and ixazomib induced phospho PERK, phospho IRE1, and JNK activation in J Lat cells, indicating the activation of the UPR pathway.

For experiment [5], the system named is CD4 T cells from an HIV positive patient with ART suppressed HIV replication. Nature of the experiment: Flow cytometry of CD4 T cells from an HIV positive patient for intracellular p24 and activated caspase 3 (FIG. 7). The class given is cell-based, human. The conditions noted are these: 48 hours. As to the method: FIG. 7 contains flow cytometry results of CD4 T cells from an HIV positive patient with ART suppressed HIV replication. Cells were treated with bortezomib or MLN-2238 (ixazomib) at the indicated doses and analyzed 48 hours later for intracellular p24 expression (as a measure of HIV reactivation), and for activated caspase 3 expression (as a measure of cell death).

Regarding `CC(C)C[C@H](NC(=O)[C@H](Cc1ccccc1)NC(=O)c1cnccn1)B(O)O` [bortezomib, N-pyrazinecarbonyl-L-phenylalanine-L-leucine boronic acid], in experiment [1], the “HIV reactivation (HIV GFP expression)” value is “caused HIV reactivation as indicated by increased HIV GFP expression” and the “death of HIV GFP positive cells (activated caspase 3 expression)” value is “caused HIV GFP positive cells to die”. In addition, the “HIV reactivation from latency” value in experiment [2] is “caused HIV reactivation from latency”. Also, the HDAC-3 expression result in the experiment on HDAC-3 is given as “decreased”. Besides, the “HIV reactivation (Luc expression)” value in the experiment on HIV-LTR is “independently reactivated HIV”. The HDAC-4 expression result in the experiment on HDAC-4 is “decreased”. For the same molecule, the HDAC-1 expression entry with HDAC-1 is listed as “decreased”. Besides, in the experiment on UPR pathway [3], the “ATF4 translocation into the nucleus” value is “induced”, the ATF6 cleavage result is “induced” and the “CHOP translocation into the nucleus” value is “induced”. Besides, in the experiment on UPR pathway [4], the JNK activation result is on record as “induced”, the “phospho IRE1” value is on record as “induced” and the “phospho PERK” value is reported as “induced”. Also, in experiment [5], the “HIV reactivation (intracellular p24 expression)” value is on record as “caused HIV reactivation as indicated by increased HIV p24 expression” and the “death of HIV positive cells (activated caspase 3 expression in p24 positive cells)” value is given as “caused HIV positive cells to die”.
